# Measurements reported in ChEMBL document CHEMBL1141849, “A beta-carboline alkaloid from the soft coral lignopsis spongiosum” (1999).
# System: Escherichia coli
# Test: Antibacterial activity against Escherichia coli ATCC 25922 at 50 ug/disk by agar diffusion assay
# Assay type: functional
# Conditions: read-out: IZ
compound,measurement,value
C[n+]1cc2[nH]c3ccccc3c2cc1C(=O)[O-],zone of inhibition at 50 µg/disc,11 mm
